# Measured values: paper PMC4868737, “BAY 1024767 blocks androgen receptor mutants found in castration-resistant prostate cancer patients” (Oncotarget, 2016)
# Changes are numbered by the printed parent chain.
# Experiments:
# Test in all cases: cell-based
# Settings in all cases: IC50 (antagonistic activity)
# AR wild-type = biological target: T1, AR wild-type (Homo sapiens, UniProt P10275)
# T1 sequence (P10275 1-920): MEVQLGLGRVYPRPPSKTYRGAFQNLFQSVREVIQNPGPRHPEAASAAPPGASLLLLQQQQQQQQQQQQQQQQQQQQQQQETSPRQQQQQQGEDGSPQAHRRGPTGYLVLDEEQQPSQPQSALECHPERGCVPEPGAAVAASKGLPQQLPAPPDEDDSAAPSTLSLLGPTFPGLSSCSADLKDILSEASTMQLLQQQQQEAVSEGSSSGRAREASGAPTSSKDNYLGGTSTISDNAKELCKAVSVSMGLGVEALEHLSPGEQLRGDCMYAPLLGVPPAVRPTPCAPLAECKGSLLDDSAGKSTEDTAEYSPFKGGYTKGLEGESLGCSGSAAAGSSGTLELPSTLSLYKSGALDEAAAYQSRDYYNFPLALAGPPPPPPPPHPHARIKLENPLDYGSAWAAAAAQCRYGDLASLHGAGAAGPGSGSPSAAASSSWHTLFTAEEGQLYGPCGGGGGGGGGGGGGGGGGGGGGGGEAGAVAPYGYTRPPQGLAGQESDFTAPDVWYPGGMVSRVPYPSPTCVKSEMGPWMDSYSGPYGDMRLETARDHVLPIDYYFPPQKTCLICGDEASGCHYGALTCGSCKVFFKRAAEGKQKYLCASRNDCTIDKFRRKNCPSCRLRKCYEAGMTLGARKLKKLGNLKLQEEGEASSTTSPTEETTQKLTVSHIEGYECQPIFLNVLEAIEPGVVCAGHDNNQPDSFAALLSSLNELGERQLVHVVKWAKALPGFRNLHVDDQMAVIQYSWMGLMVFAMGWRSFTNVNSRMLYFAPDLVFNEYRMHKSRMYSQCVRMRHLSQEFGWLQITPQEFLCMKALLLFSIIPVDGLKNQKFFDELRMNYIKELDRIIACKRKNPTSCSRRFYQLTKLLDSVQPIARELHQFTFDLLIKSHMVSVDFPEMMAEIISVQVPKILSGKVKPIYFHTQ
# AR F876L = biological target: T2, AR F876L (Homo sapiens, UniProt P10275, F877L)
# T2 sequence (P10275 1-920 F877L): T1 sequence (P10275 1-920) with F877L
# AR T877A = AR T877A (Homo sapiens, UniProt P10275, T878A)
# AR T877A, sequence (P10275 whole entry T878A): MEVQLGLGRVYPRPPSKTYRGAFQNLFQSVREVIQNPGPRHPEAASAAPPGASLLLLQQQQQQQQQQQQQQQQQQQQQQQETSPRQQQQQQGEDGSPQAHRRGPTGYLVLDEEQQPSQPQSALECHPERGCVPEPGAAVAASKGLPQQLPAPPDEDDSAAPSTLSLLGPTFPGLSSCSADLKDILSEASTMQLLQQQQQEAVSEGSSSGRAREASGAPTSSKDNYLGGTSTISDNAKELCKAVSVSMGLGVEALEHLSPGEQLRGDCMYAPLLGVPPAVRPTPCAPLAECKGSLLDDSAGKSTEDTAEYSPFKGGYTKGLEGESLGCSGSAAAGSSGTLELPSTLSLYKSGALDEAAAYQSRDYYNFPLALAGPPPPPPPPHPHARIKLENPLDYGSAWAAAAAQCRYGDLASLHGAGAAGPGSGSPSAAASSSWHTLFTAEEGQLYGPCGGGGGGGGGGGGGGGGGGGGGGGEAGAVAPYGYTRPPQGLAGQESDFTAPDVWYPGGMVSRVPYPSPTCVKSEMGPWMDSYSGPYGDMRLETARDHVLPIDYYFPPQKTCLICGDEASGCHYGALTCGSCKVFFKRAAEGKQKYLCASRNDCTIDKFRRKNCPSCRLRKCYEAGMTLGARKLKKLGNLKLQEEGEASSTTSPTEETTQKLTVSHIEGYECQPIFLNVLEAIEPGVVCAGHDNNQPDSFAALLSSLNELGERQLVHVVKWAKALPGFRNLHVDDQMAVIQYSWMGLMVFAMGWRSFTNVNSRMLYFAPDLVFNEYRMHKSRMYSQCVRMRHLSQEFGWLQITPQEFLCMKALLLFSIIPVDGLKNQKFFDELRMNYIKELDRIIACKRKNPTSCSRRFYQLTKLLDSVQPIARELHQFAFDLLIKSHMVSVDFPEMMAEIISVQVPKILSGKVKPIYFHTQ
# AR E709Y = biological target: T3, AR E709Y (Homo sapiens, UniProt P10275, E710Y)
# T3 sequence (P10275 1-920 E710Y): T1 sequence (P10275 1-920) with E710Y
smiles,measurement,setting,value
CC(C)(O)COc1ccc(CN2C(=S)N(c3ccc(C#N)c(C(F)(F)F)c3)C(=O)C2(C)C)cn1 [BAY 1024767],IC50,AR wild-type; R1881 0.1 nM,0.046 µM
same,IC50,AR wild-type; R1881 1 nM,0.26 µM
same,IC50,AR wild-type; R1881 10 nM,1.6 µM
same,IC50,AR F876L; R1881 0.1 nM,0.106 µM
same,IC50,AR F876L; R1881 1 nM,0.293 µM
same,IC50,AR F876L; R1881 10 nM,2.06 µM
same,IC50,AR T877A; R1881 0.1 nM,0.32 µM
same,IC50,AR T877A; R1881 1 nM,1.1 µM
same,IC50,AR E709Y; R1881 0.1 nM,0.03 µM
same,IC50,AR E709Y; R1881 1 nM,0.13 µM
same,IC50,AR E709Y; R1881 10 nM,0.61 µM
